Experimental data from patent US20070249011A1, “Method for Screening Fungus-Specific Antimicrobial Agent and Kit Therefor” (priority 2004, published 2007).

Key:
Type in all cases: cell-based, Saccharomyces cerevisiae
[1] = tested on: strain introducing pYES2-hik1-H736V; test: Reagent sensitivity by plate culture, yeast expressing Hik1-H736V (nonfunctional histidine kinase domain); conditions: 25 ppm fludioxonil, 25 ppm iprodione, 50 ppm chloroneb; SG plates, 30° C., 72 hours (FIG. 6B)
Protocol: (§1) The reagents were added to each SG medium so that 25 ppm fludioxonil, 25 ppm iprodione, 50 ppm chloroneb, and 0.5 M NaCl were contained in order from the second leftmost plate;
(§2) Reagent sensitivity was analyzed by plate culture and liquid culture. In the plate culture, strains were precultured overnight in 5 ml of SD/-Ura and then collected, followed by washing with 10 ml of SG/-Ura. The resulting strains were cultured for 8 hours to 10 hours in 10 ml of SG/-Ura, followed by OD600 measurement. They were diluted to 10^7 cells/ml, 10^6 cells/ml, 10^5 cells/ml, and 10^4 cells/ml, and 5 μl each thereof was added dropwise onto SG/-Ura plates supplemented with a variety of reagents, and cultured for 60 hours to 240 hours. In the liquid culture, strains were precultured overnight in 5 ml of SD/-Ura and then collected, followed by washing with 10 ml of SG/-Ura. The resulting strains were cultured for 8 hours to 10 hours in 10 ml of SG/-Ura, followed by OD600 measurement. They were added at OD600=0.01 to 300-ml Erlenmeyer flasks accommodating 50 ml of SG/-Ura containing a variety of reagents. After shaking by spinning at 160 rpm and 27° C., sampling was performed after 12, 15, 18, 21, 24, 33, 36, and 39 hours, followed by OD600 measurement. A growth curve was created to calculate a doubling time.
(§3) (2) Mutagenized HIK1 was prepared with Mutan-Express Km kit (TAKARA SHUZO) using synthetic DNAs for mutagenesis (HK-H736V: 5′-[…]-3′ (SEQ ID NO: 2) and HK-D1153E: 5′-[…]-3′ (SEQ ID NO: 3)). Each mutagenized HIK1 was cloned into the BamHI site of pYES2 to prepare pYES2-hik1-H736V and […]. […]

ATCC201388 [pYES2] = test: Reagent sensitivity by liquid culture (doubling time), vector-only control yeast; conditions: 25 ppm reagent, liquid culture in SG/-Ura (GAL1 expression-inducing conditions), 27° C., 160 rpm, average ± standard deviation
pYES2 transformant = test: Reagent sensitivity by plate culture, vector-only control yeast
[2] = tested on: ssk1 mutant strain introducing pYES2-HIK1; test: Reagent sensitivity by plate culture, ssk1 mutant strain introducing pYES2-HIK1; conditions: 25 ppm fludioxonil, 25 ppm iprodione, 50 ppm chloroneb; SG plates, 30° C., 60 hours (FIG. 7A)
Source text: (§4) A suspension of a control yeast cell introducing pYES2-HIK1 therein (uppermost rows), a suspension of a hog1 mutant strain cell introducing pYES2-HIK1 therein (second rows), a suspension of an ssk1 mutant strain cell introducing pYES2-HIK1 therein (third rows), a suspension of a ste11 mutant strain cell introducing pYES2-HIK1 therein (fourth rows), a suspension of a control yeast cell introducing pYES2 therein (fifth rows), a suspension of a hog1 mutant strain cell introducing pYES2-HIK1 therein (sixth rows), a suspension of an ssk1 mutant strain cell introducing pYES2-HIK1 therein (seventh rows), and a suspension of a ste11 mutant strain cell introducing pYES2-HIK1 therein (lowermost rows) were added (5 μl each) dropwise at 9 mm spacings (from the left, 10^7, 10^6, 10^5, and 10^4/ml) in order from the uppermost rows of plates of 90 mm in diameter containing a variety of reagents, followed by culture at 30° C. for 60 hours (or 96 hours for NaCl). […] A suspension of a hog1 mutant strain cell introducing pCLΔ-HOG1 and pYES2-HIK1 therein (uppermost rows), a suspension of a hog1 mutant strain cell introducing pCLΔ and pYES2-HIK1 therein (second rows), a suspension of an ssk1 mutant strain cell introducing pCLΔ-SSK1 and pYES2-HIK1 therein (third rows), and a suspension of an ssk1 mutant strain cell introducing pCLΔ and pYES2-HIK1 therein (lowermost rows) were added (5 μl each) dropwise at 9 mm spacings (from the left, 10 ^7, 10^6, 10^5, and 10^4/ ml) in order from the uppermost rows of plates of 90 mm in diameter containing a variety of reagents, followed by culture at 30° C. for 60 hours (or 96 hours for NaCl). The reagents were added to each SG medium so that 25 ppm fludioxonil, 25 ppm iprodione, 50 ppm chloroneb, and 0.5 M NaCl were contained in order from the second leftmost plate; and
(§5) Reagent sensitivity was analyzed by plate culture and liquid culture. In the plate culture, strains were precultured overnight in 5 ml of SD/-Ura and then collected, followed by washing with 10 ml of SG/-Ura. […]

pYES2-HIK1 transformant = test: Reagent sensitivity by plate culture, HIK1-expressing yeast; conditions: for concentration at which the effect was saturated / growth inhibition in the presence of the reagent: SG plates; for concentration at which the effect was saturated: GAL1 expression-inducing conditions (FIG. 5B); for growth inhibition in the presence of the reagent: GAL1 expression-inducing conditions, 30° C., 60 hours, 5-100 ppm (FIG. 5B)
[3] = tested on: hog1 mutant strain introducing pYES2-HIK1; test: Reagent sensitivity by plate culture, hog1 mutant strain introducing pYES2-HIK1; conditions: 25 ppm fludioxonil, 25 ppm iprodione, 50 ppm chloroneb; SG plates, 30° C., 60 hours (FIG. 7A)
Source text: as §4, §5

ATCC201388 [pYES2-HIK1] = test: Reagent sensitivity by liquid culture (doubling time), HIK1-expressing yeast; conditions: 25 ppm reagent, liquid culture in SG/-Ura (GAL1 expression-inducing conditions), 27° C., 160 rpm, average ± standard deviation
[4] = tested on: ste11 mutant strain introducing pYES2-HIK1; test: Reagent sensitivity by plate culture, ste11 mutant strain introducing pYES2-HIK1; conditions: 25 ppm fludioxonil, 25 ppm iprodione, 50 ppm chloroneb; SG plates, 30° C., 60 hours (FIG. 7A)
Source text: as §4, §5

[5] = tested on: strain introducing pYES2-hik1-D1153E; test: Reagent sensitivity by plate culture, yeast expressing Hik1-D1153E (nonfunctional response regulator domain); conditions: 25 ppm fludioxonil, 25 ppm iprodione, 50 ppm chloroneb; SG plates, 30° C., 72 hours (FIG. 6B)
Protocol: as §1, §2, §3

[6] = SG plates, GAL1 expression-inducing conditions, 30° C., 60 hours, 5-100 ppm (FIG. 5B)
[7] = all the strains (control, hog1, ssk1, ste11 mutant) introducing pYES2, 25 ppm fludioxonil, 25 ppm iprodione, 50 ppm chloroneb (FIG. 7A)

Compound	sensitivity to the reagent [1]	doubling time (ATCC201388 [pYES2])	doubling time (ATCC201388 [pYES2]; listed as chloroneb)	sensitivity to the reagent (pYES2 transformant; [6])	sensitivity to the reagent (pYES2 transformant; [7])	sensitivity to the reagent [2]	concentration at which the effect was saturated (pYES2-HIK1 transformant)	growth inhibition in the presence of the reagent (pYES2-HIK1 transformant)	sensitivity to the reagent [3]	doubling time (ATCC201388 [pYES2-HIK1])	doubling time (ATCC201388 [pYES2-HIK1]; listed as chloroneb)	sensitivity to the reagent [4]	sensitivity to the reagent [5]	doubling time (ATCC201388 [pYES2]; listed as iprodione)	doubling time (ATCC201388 [pYES2-HIK1]; listed as iprodione)	doubling time (ATCC201388 [pYES2]; listed as fludioxonil)	doubling time (ATCC201388 [pYES2-HIK1]; listed as fludioxonil)	difference in sensitivity between the pYES2-HIK1 transformant and the pYES2 transformant (pYES2-HIK1 transformant; expression-inducing conditions, 0.25 ppm, cultured for 240 hours (FIG. 5B))
COc1cc(Cl)c(OC)cc1Cl [Chloroneb, chloroneb]	hardly exhibited sensitivity	2.17 ± 0.08 h	around 2.2 hours	no sensitivity	no sensitivity	did not exhibit sensitivity	50 ppm	exhibited growth inhibition	did not exhibit sensitivity	2.90 ± 0.11 h	2.90 h	exhibited sensitivity	hardly exhibited sensitivity	–	–	–	–	–
CC(C)NC(=O)N1CC(=O)N(c2cc(Cl)cc(Cl)c2)C1=O [Iprodione, iprodione]	hardly exhibited sensitivity	2.12 ± 0.06 h	–	no sensitivity	no sensitivity	did not exhibit sensitivity	25 ppm	exhibited growth inhibition	did not exhibit sensitivity	3.12 ± 0.10 h	–	exhibited sensitivity	hardly exhibited sensitivity	around 2.2 hours	3.12 h	–	–	–
N#Cc1c[nH]cc1-c1cccc2c1OC(F)(F)O2 [Fludioxonil, fludioxonil]	hardly exhibited sensitivity	2.25 ± 0.06 h	–	no sensitivity	no sensitivity	did not exhibit sensitivity	5 ppm	exhibited growth inhibition	did not exhibit sensitivity	4.25 ± 0.20 h	–	exhibited sensitivity	hardly exhibited sensitivity	–	–	around 2.2 hours	4.25 h	–
C[C@@H]1C[C@@H]([C@H](O)CC2CC(=O)NC(=O)C2)C(=O)[C@@H](C)C1 [cycloheximide]	–	–	–	–	–	–	–	–	–	–	–	–	–	–	–	–	–	No difference in sensitivity
